Source: article PMC3869807 (PLoS ONE, 2013)
“And” between values parts separate entries of the source, which are not always exact repeats. Equal entries are not always repeated.

Key:
[1] = target: T1, µ-opioid receptor (Homo sapiens, UniProt P35372); assay: cell-based; assay type: cell-based; parameters: host or cells: U2OS
[2] = target: T1, µ-opioid receptor; assay: biochemical; parameters: host or cells: U2OS (membrane preparation)
[3] = target: T1, µ-opioid receptor; assay: biochemical; assay type: binding; parameters: host or cells: U2OS (membrane preparation)
[4] = target: T1, µ-opioid receptor; assay: biochemical; assay type: binding; parameters: host or cells: U2OS (membrane preparation); remark: listed apart in the source

T1 sequence (P35372 whole entry): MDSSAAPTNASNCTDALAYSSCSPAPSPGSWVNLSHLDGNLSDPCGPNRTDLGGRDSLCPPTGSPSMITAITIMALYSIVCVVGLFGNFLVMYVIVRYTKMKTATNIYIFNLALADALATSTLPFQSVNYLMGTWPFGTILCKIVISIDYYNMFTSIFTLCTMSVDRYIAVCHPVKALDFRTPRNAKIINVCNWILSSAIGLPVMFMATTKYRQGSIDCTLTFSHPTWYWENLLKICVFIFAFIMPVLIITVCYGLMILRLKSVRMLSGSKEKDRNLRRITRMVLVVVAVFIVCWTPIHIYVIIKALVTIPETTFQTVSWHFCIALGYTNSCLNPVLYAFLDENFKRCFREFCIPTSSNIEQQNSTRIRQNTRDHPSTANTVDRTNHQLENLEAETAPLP

Row | SMILES | β-arrestin recruitment that was PTX sensitive [1] | Emax [1] [%] | Emax ([1]; U2OS) [%] | Emax [2] | EC50 ([1]; β-fun 1 nM EC50) [nM] | EC50 ([1]; β-fun 10 nM EC50) [nM] | Ki ([3]; GRK2 moi 5 KL) [nM] | Ki ([3]; Untransduced KL) [nM] | EC50 ([2]; EC50) | Ki ([4]; GRK2 moi 5 KH) [nM] | Ki ([4]; Untransduced KH) [nM]
1 | C[C@@H](NC(=O)[C@@H](N)Cc1ccc(O)cc1)C(=O)NCC(=O)N(C)[C@@H](Cc1ccccc1)C(=O)NCCO [DAMGO, [D-Ala^2, MePhe^4, gly^5 –ol]-enkephalin] | 60–70% | – | – | – | – | – | – | – | – | – | –
2 | NC(=O)[C@H](Cc1ccccc1)NC(=O)[C@H](Cc1ccccc1)NC(=O)[C@@H]1CCCN1C(=O)[C@@H](N)Cc1ccc(O)cc1 [Endomorphin 2, endomorphin 2] | – | 74±4 | 69 ± 3 | 104% and 101±2% | – | – | – | – | – | – | –
3 | COc1ccc2c3c1O[C@H]1C(=O)CC[C@@]4(O)[C@@H](C2)N(C)CC[C@]314 [Oxycodone, oxycodone] | 60–70% | – | – | 95% and 104±2% | – | – | – | – | – | – | –
4 | CC(=O)N[C@@H](Cc1ccccc1)C(=O)NCC(C)(C)NC(=O)[C@@H](N)Cc1ccc(O)cc1.Cl [Pfizer comp 1, 2-(L-Tyrosylamino)-1-[(N-acetyl-L-phenylalanyl)-amino]-2-methylpropane hydrochloride] | 60–70% | 99±8 | 106 ± 4 | 103% and 100±4% | 1.38 | 2.24 | 21.9 | 42.7 | 0.219 nM and 0.17 nM | 0.0513 | 0.0479
